Values joined by “and” are separate entries in the source; they are usually repeats but may differ in a detail not shown here. Equal entries are not always repeated. Toxic doses and inconclusive results are not listed. The calls were made as follows: active = survival T/C of 150% or more; inactive = T/C below 125% in these data.
Test system: P388 leukemia ip, CD2F1 mice, survival T/C
Test: NCI In Vivo Anticancer Drug Screen. Data for tumor model P388 Leukemia (intraperitoneal) in CD2F1 (CDF1) mice
Settings: endpoint: median survival time, higher = longer survival
How it was run: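 Mice carrying the transplanted tumor received test compound or vehicle. Survival was recorded in each group, and the value is the treated-group measurement divided by that of the vehicle-treated control group.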

[1] = dose: 50.0 mg/kg/injection, schedule: Q01DX009 (ip), vehicle: saline with Tween-80
[2] = dose: 100.0 mg/kg/injection, schedule: Q01DX009 (ip), vehicle: saline with Tween-80
[3] = dose: 200.0 mg/kg/injection, schedule: Q01DX009 (ip), vehicle: saline with Tween-80
[4] = dose: 400.0 mg/kg/injection, schedule: Q01DX009 (ip), vehicle: saline with Tween-80
[5] = dose: 50.0 mg/kg/injection, schedule: Q01DX009 (ip), vehicle: saline
[6] = dose: 100.0 mg/kg/injection, schedule: Q01DX009 (ip), vehicle: saline
[7] = dose: 200.0 mg/kg/injection, schedule: Q01DX009 (ip), vehicle: saline
[8] = dose: 15.0 mg/kg/injection, schedule: Q01DX005 (ip), vehicle: saline with Tween-80
[9] = dose: 50.0 mg/kg/injection, schedule: Q01DX005 (ip), vehicle: saline with Tween-80
[10] = dose: 60.0 mg/kg/injection, schedule: Q01DX005 (ip), vehicle: saline with Tween-80

Measured: T/C

CCC1(O)CC2CN(CCc3c([nH]c4ccccc34)C(C(=O)OC)(c3cc4c(cc3OC)N(C)C3C(O)(C(N)=O)C(O)C5(CC)C=CCN6CCC43C65)C2)C1 (configuration not stated) (tested in a mixture with another compound)
active: dose: 0.11 mg/kg/injection, schedule: Q04DX003 (ip), vehicle: clinical formulation 158 % of control | dose: 0.13 mg/kg/injection, schedule: Q04DX003 (ip), vehicle: saline 161 % of control | dose: 0.18 mg/kg/injection, schedule: Q04DX003 (ip), vehicle: clinical formulation 161 % of control | dose: 0.25 mg/kg/injection, schedule: Q04DX003 (ip), vehicle: water 158 % of control | dose: 0.3 mg/kg/injection, schedule: Q04DX003 (ip), vehicle: clinical formulation 180 % of control | dose: 0.5 mg/kg/injection, schedule: Q04DX003 (ip), vehicle: clinical formulation 179 % of control | dose: 0.5 mg/kg/injection, schedule: Q04DX003 (ip), vehicle: saline 203 % of control and 216 % of control | dose: 0.5 mg/kg/injection, schedule: Q04DX003 (ip), vehicle: water 163 % of control | dose: 0.67 mg/kg/injection, schedule: Q04DX003 (ip), vehicle: saline 177 % of control | dose: 0.67 mg/kg/injection, schedule: Q04DX003 (ip), vehicle: water 202 % of control | dose: 0.83 mg/kg/injection, schedule: Q04DX003 (ip), vehicle: clinical formulation 215 % of control | dose: 1.0 mg/kg/injection, schedule: Q04DX003 (ip), vehicle: saline 189 % of control and 191 % of control | dose: 1.0 mg/kg/injection, schedule: Q04DX003 (ip), vehicle: water 188 % of control and 200 % of control | dose: 1.08 mg/kg/injection, schedule: Q04DX003 (ip), vehicle: clinical formulation 170 % of control | dose: 1.3 mg/kg/injection, schedule: Q04DX003 (ip), vehicle: water 222 % of control | dose: 1.5 mg/kg/injection, schedule: Q04DX003 (ip), vehicle: saline 184 % of control | dose: 1.5 mg/kg/injection, schedule: Q04DX003 (ip), vehicle: water 268 % of control | dose: 1.8 mg/kg/injection, schedule: Q04DX003 (ip), vehicle: clinical formulation 173 % of control | dose: 2.0 mg/kg/injection, schedule: Q04DX003 (ip), vehicle: water 186 % of control and 283 % of control
inactive: dose: 0.06 mg/kg/injection, schedule: Q01DX009 (ip), vehicle: water 107 % of control | dose: 0.22 mg/kg/injection, schedule: Q01DX009 (ip), vehicle: water 123 % of control | dose: 0.6 mg/kg/injection, schedule: Q01DX009 (ip), vehicle: water 97 % of control | dose: 3.0 mg/kg/injection, schedule: Q04DX003 (ip), vehicle: clinical formulation 95 % of control | dose: 3.0 mg/kg/injection, schedule: Q04DX003 (ip), vehicle: water 123 % of control
100 % of control and 223 % of control: dose: 1.0 mg/kg/injection, schedule: Q01DX009 (ip), vehicle: water

S=c1[nH]nc2nc3c4ccccc4c4ncccc4c3nn12
inactive: dose: 100.0 mg/kg/injection, schedule: Q01DX001 (ip), vehicle: saline with Tween-80 92 % of control | dose: 200.0 mg/kg/injection, schedule: Q01DX001 (ip), vehicle: saline with Tween-80 91 % of control | dose: 400.0 mg/kg/injection, schedule: Q01DX001 (ip), vehicle: saline with Tween-80 100 % of control

N#Cc1cc2ccncc2c2ccccc12
inactive: dose: 25.0 mg/kg/injection, schedule: Q01DX009 (ip), vehicle: saline with Tween-80 90 % of control | [1] 93 % of control and 95 % of control | [2] 98 % of control | [3] 106 % of control and 89 % of control | [4] 114 % of control

N#C/C(=C1C=C/C(=N/O)C=C/1Cl)c1ccccc1
inactive: [1] 95 % of control | [2] 93 % of control | [3] 94 % of control | [4] 94 % of control

CCOP(O)(=S)OCC.[Ti]
inactive: dose: 50.0 mg/kg/injection, schedule: Q01DX009 (ip), vehicle: Klucel (hydroxypropylcellulose) (HPC) 96 % of control | dose: 100.0 mg/kg/injection, schedule: Q01DX009 (ip), vehicle: Klucel (hydroxypropylcellulose) (HPC) 101 % of control | dose: 200.0 mg/kg/injection, schedule: Q01DX009 (ip), vehicle: Klucel (hydroxypropylcellulose) (HPC) 92 % of control

COc1cc(C2C(C(=O)OC/C=C/c3ccc4c(c3)OCO4)C(c3cc(OC)c(OC)c(OC)c3)C2C(=O)OC/C=C/c2ccc3c(c2)OCO3)cc(OC)c1OC (configuration not stated)
inactive: [1] 87 % of control | [2] 93 % of control | [3] 95 % of control | [4] 102 % of control

CCCCCCCCCCCCCCCCOc1ccc(C(=O)CC(=O)OC)cc1
inactive: dose: 50.0 mg/kg/injection, schedule: Q01DX009 (ip), vehicle: other 103 % of control | dose: 100.0 mg/kg/injection, schedule: Q01DX009 (ip), vehicle: other 100 % of control | dose: 200.0 mg/kg/injection, schedule: Q01DX009 (ip), vehicle: other 95 % of control | dose: 400.0 mg/kg/injection, schedule: Q01DX009 (ip), vehicle: other 87 % of control

Cc1ccc(C#N)c(Cl)c1
inactive: [5] 100 % of control | [6] 100 % of control | [7] 106 % of control

COC1=C(OC)C(=O)C([Si](C)(C)C)=C(CO)C1=O
inactive: dose: 7.5 mg/kg/injection, schedule: Q01DX005 (ip), vehicle: saline with Tween-80 103 % of control | [8] 105 % of control

C1=CC2(C=CCC1)OCCO2
inactive: [9] 121 % of control

COc1cc2c(cc1C(C)c1ccc(OC(C)=O)cc1)OCO2 (configuration not stated)
inactive: dose: 25.0 mg/kg/injection, schedule: Q01DX005 (ip), vehicle: Klucel (hydroxypropylcellulose) (HPC) 103 % of control | dose: 50.0 mg/kg/injection, schedule: Q01DX005 (ip), vehicle: Klucel (hydroxypropylcellulose) (HPC) 103 % of control | dose: 100.0 mg/kg/injection, schedule: Q01DX005 (ip), vehicle: Klucel (hydroxypropylcellulose) (HPC) 99 % of control | dose: 200.0 mg/kg/injection, schedule: Q01DX005 (ip), vehicle: Klucel (hydroxypropylcellulose) (HPC) 101 % of control

CN(C)c1ccc(/C=N/NC(=O)COc2ccccc2)cc1
inactive: [8] 98 % of control | dose: 30.0 mg/kg/injection, schedule: Q01DX005 (ip), vehicle: saline with Tween-80 88 % of control | [10] 88 % of control

CSC(SC)c1cc(-c2c(Cl)cccc2Cl)no1
inactive: [10] 102 % of control | dose: 120.0 mg/kg/injection, schedule: Q01DX005 (ip), vehicle: saline with Tween-80 103 % of control | dose: 240.0 mg/kg/injection, schedule: Q01DX005 (ip), vehicle: saline with Tween-80 103 % of control

CCC(=N\N=C(N)N)/C(C)=N\N=C(N)N
inactive: [9] 99 % of control | dose: 100.0 mg/kg/injection, schedule: Q01DX005 (ip), vehicle: saline with Tween-80 96 % of control

CC(C)=CC(=O)OC1C2C(C)=CC(O)C(O)C2(C)C2C3(O)OCC24C(CC(=O)OC14)C(C)C3O (configuration not stated)
inactive: dose: 0.31 mg/kg/injection, schedule: Q01DX005 (ip), vehicle: distilled water + Tween-80 123 % of control | dose: 6.0 mg/kg/injection, schedule: Q01DX009 (ip), vehicle: saline with Tween-80 109 % of control
active: dose: 0.75 mg/kg/injection, schedule: Q01DX009 (ip), vehicle: saline with Tween-80 160 % of control | dose: 1.0 mg/kg/injection, schedule: Q01DX005 (ip), vehicle: distilled water + Tween-80 154 % of control | dose: 2.0 mg/kg/injection, schedule: Q01DX005 (ip), vehicle: distilled water + Tween-80 154 % of control | dose: 4.0 mg/kg/injection, schedule: Q01DX005 (ip), vehicle: distilled water + Tween-80 163 % of control | dose: 5.0 mg/kg/injection, schedule: Q01DX005 (ip), vehicle: distilled water + Tween-80 153 % of control

O=C1OC[C@@H]2C=CC[C@H]12
inactive: dose: 50.0 mg/kg/injection, schedule: Q01DX005 (ip), vehicle: saline 100 % of control | dose: 100.0 mg/kg/injection, schedule: Q01DX005 (ip), vehicle: saline 100 % of control | dose: 200.0 mg/kg/injection, schedule: Q01DX005 (ip), vehicle: saline 107 % of control

COc1ccc2c(=O)cc(-c3ccccc3)[nH]c2c1
inactive: dose: 12.5 mg/kg/injection, schedule: Q01DX009 (ip), vehicle: saline 90 % of control | dose: 25.0 mg/kg/injection, schedule: Q01DX009 (ip), vehicle: saline 98 % of control | [5] 114 % of control | dose: 65.0 mg/kg/injection, schedule: Q01DX009 (ip), vehicle: saline 118 % of control | [6] 117 % of control and 118 % of control | [7] 99 % of control

Source: PubChem BioAssay AID330 (DTP/NCI, 2004)
